The structures appear in SMILES notation. Structures can show the parent of a compound that is named as a salt.

The test relates to CD4+ CCR4+ T cells. The test can be described thus: Chemokine stimulated increases in cellular F-actin content. As to conditions: Homo sapiens, T-cell, 0.5 h; PBMC from normal volunteers; antagonist 30 min at 37° C. before agonist for 15 sec; F-actin content by flow cytometry; read-out: pA2 (converted). It counts as cell-based. How it is done:
Chemokine Stimulated Increases in Cellular F-Actin Content
Blood was taken from normal volunteers who had taken no medication within the previous ten days and mixed with 1/9 of the volume of 3.8% tri-sodium citrate solution. Chemokine-induced increases in the F-actin content of CD4+ CCR4+ T cells were measured by a modification of the method of Pilette et al. (Eur. Respir. J; 23: 876-884, 2004). Peripheral blood mononuclear cells (PBMC) were isolated by dextran sedimentation followed by Percoll density gradient centrifugation. The PBMCs were incubated with FITC-conjugated anti-human CD4 and PE-conjugated anti-CCR4 antibodies or appropriate isotype controls for 15 min. The cell suspensions were then centrifuged at 400 g for 10 min and the pellets resuspended in assay buffer (phenol red-free RPMI 1640 medium containing 10 mM HEPES and 0.1% bovine serum albumin) at 10^7/mL. The resulting cell suspension was incubated with antagonist or vehicle (0.1% DMSO) for 30 min at 37° C. before stimulation with the agonist for 15 sec. The assay was terminated by addition of 3% formaldehyde. The fixed cells were washed twice with PBS (centrifuging at 1000 g for 5 min to recover the cells) and incubated at room temperature with Alexa fluor-647 phalloidin (0.075 U/mL) in the presence of lyso-phosphatidylcholine (93.75 μg/ml) for 20 min to stain F-actin. The cells were washed once more with PBS and the relative F-actin content of the cells was measured flow cytometrically. The mean fluorescence intensity of 1000 CD4^+ CCR4^+ cells per sample was determined and expressed as a fraction of the mean intensity of the CD4^+ CCR4^− cells in that sample.
On the technique in general: Flow cytometry measures light scatter and fluorescence of single cells or particles in a stream.
As for `COc1cccc2c1c(NS(=O)(=O)c1ccc(Cl)s1)nn2Cc1cccc(CNC(=O)[C@H](N)CC(C)C)c1` [Example 45, N^1-[(3-{[3-{[(5-Chloro-2-thienyl)sulfonyl]amino}-4-(methyloxy)-1H-indazol-1-yl]methyl}phenyl)methyl]-D-leucinamide], the Kb is not above 126 nM. On to `CC[C@H](C)[C@@H](N)C(=O)NCc1cccc(Cn2nc(NS(=O)(=O)c3ccc(Cl)s3)c3c(OC)cccc32)c1` [Example 46, N^1-[(3-{[3-{[(5-Chloro-2-thienyl)sulfonyl]amino}-4-(methyloxy)-1H-indazol-1-yl]methyl}phenyl)methyl]-D-alloisoleucinamide], for which the Kb is not above 126 nM. To `COc1cccc2c1c(NS(=O)(=O)c1ccc(Cl)s1)nn2Cc1cccc(CNC(=O)[C@@H](N)Cc2ccccc2)c1` [Example 47, N-[(3-{[3-{[(5-Chloro-2-thienyl)sulfonyl]amino}-4-(methyloxy)-1H-indazol-1-yl]methyl}phenyl)methyl]-L-phenylalaninamide] belongs not above 126 nM; to `COc1cccc2c1c(NS(=O)(=O)c1ccc(Cl)s1)nn2Cc1cccc(CNC(=O)[C@@H](N)CCCCN)c1` [Example 49, N^1-[(3-{[3-{[(5-Chloro-2-thienyl)sulfonyl]amino}-4-(methyloxy)-1H-indazol-1-yl]methyl}phenyl)methyl]-L-lysinamide], not above 126 nM; to `COc1cccc2c1c(NS(=O)(=O)c1ccc(Cl)s1)nn2Cc1cccc(CNC(=O)[C@H]2CCN2)c1` [Example 50, (2R)—N-[(3-{[3-{[(5-Chloro-2-thienyl)sulfonyl]amino}-4-(methyloxy)-1H-indazol-1-yl]methyl}phenyl)methyl]-2-azetidinecarboxamide trifluoroacetate], not above 126 nM. To `COc1ccc(Cn2nc(NS(=O)(=O)c3ccc(Cl)s3)c3c(OC)cccc32)cc1OC` [Example 53, N-[1-{[3,4-Bis(methyloxy)phenyl]methyl}-4-(methyloxy)-1H-indazol-3-yl]-5-chloro-2-thiophenesulfonamide] belongs not above 126 nM; to `COC[C@H](N)C(=O)NCc1cccc(Cn2nc(NS(=O)(=O)c3ccc(Cl)s3)c3c(OC)cccc32)c1` [Example 54, N^1-[(3-{[3-{[(5-Chloro-2-thienyl)sulfonyl]amino}-4-(methyloxy)-1H-indazol-1-yl]methyl}phenyl)methyl]-O-methylserinamide trifluoroacetate], not above 126 nM.

As for `CNC(C)(C)C(=O)NCc1cccc(Cn2nc(NS(=O)(=O)c3ccc(Cl)s3)c3c(OC)cccc32)c1` [Example 56, N1-[(3-{[3-{[(5-Chloro-2-thienyl)sulfonyl]amino}-4-(methyloxy)-1H-indazol-1-yl]methyl}phenyl)methyl]-N2,2-dimethylalaninamide formate], the Kb is not above 126 nM. In the case of `COc1cccc2c1c(NS(=O)(=O)c1ccc(Cl)s1)nn2Cc1cccc(CNS(C)(=O)=O)c1` [Example 58, 5-Chloro-N-{4-(methyloxy)-1-[(3-{[(methylsulfonyl)amino]methyl}phenyl)methyl]-1H-indazol-3-yl}-2-thiophenesulfonamide], the Kb is not above 126 nM. For the compound `COc1cccc2c1c(NS(=O)(=O)c1ccc(Cl)s1)nn2Cc1cccc(CNC(N)=O)c1` [Example 59, N-[1-[(3-{[(Aminocarbonyl)amino]methyl}phenyl)methyl]-4-(methyloxy)-1H-indazol-3-yl]-5-chloro-2-thiophenesulfonamide], the Kb was not above 126 nM. With `COc1cccc2c1c(NS(=O)(=O)c1ccc(Cl)s1)nn2Cc1cccc(CNC(=O)NC(C)(C)C)c1` [Example 60, 5-Chloro-N-[1-({3-[({[(1,1-dimethylethyl)amino]carbonyl}amino)methyl]phenyl}methyl)-4-(methyloxy)-1H-indazol-3-yl]-2-thiophenesulfonamide] the figure was not above 126 nM. To `COc1cccc2c1c(NS(=O)(=O)c1ccc(Cl)s1)nn2Cc1cccc(CNC(=O)NC(C)C)c1` [Example 61, 5-Chloro-N-[1-({3-[({[(1-methylethyl)amino]carbonyl}amino)methyl]phenyl}methyl)-4-(methyloxy)-1H-indazol-3-yl]-2-thiophenesulfonamide] belongs not above 126 nM; to `COc1cccc2c1c(NS(=O)(=O)c1ccc(Cl)s1)nn2Cc1ccc(S(N)(=O)=O)cc1` [Example 62, N-[1-{[4-(Aminosulfonyl)phenyl]methyl}-4-(methyloxy)-1H-indazol-3-yl]-5-chloro-2-thiophenesulfonamide], not above 126 nM; to `CNC(=O)Cc1cccc(Cn2nc(NS(=O)(=O)c3ccc(Cl)s3)c3c(OC)cccc32)c1` [Example 63, 2-(3-{[3-{[(5-Chloro-2-thienyl)sulfonyl]amino}-4-(methyloxy)-1H-indazol-1-yl]methyl}phenyl)-N-methylacetamide], not above 126 nM. To `COc1cccc2c1c(NS(=O)(=O)c1ccc(Cl)s1)nn2Cc1cccc(C(N)=O)c1` [Example 64, 3-{[3-{[(5-Chloro-2-thienyl)sulfonyl]amino}-4-(methyloxy)-1H-indazol-1-yl]methyl}benzamide] belongs not above 126 nM. In the case of `COc1cccc2c1c(NS(=O)(=O)c1ccc(Cl)s1)nn2Cc1cccc(C(=O)NCCN(C)C)c1` [Example 65, 3-{[3-{[(5-Chloro-2-thienyl)sulfonyl]amino}-4-(methyloxy)-1H-indazol-1-yl]methyl}-N-[2-(dimethylamino)ethyl]benzamide], the Kb is not above 126 nM. For the compound `COc1cccc2c1c(NS(=O)(=O)c1ccc(C)s1)nn2Cc1cccc(C(N)=O)c1` [Example 66, 3-[(4-(Methyloxy)-3-{[(5-methyl-2-thienyl)sulfonyl]amino}-1H-indazol-1-yl)methyl]benzamide], the Kb was not above 126 nM. To `COc1cccc2c1c(NS(=O)(=O)c1ccc(Br)s1)nn2Cc1cccc(C(N)=O)c1` [Example 67, 3-{[3-{[(5-Bromo-2-thienyl)sulfonyl]amino}-4-(methyloxy)-1H-indazol-1-yl]methyl}benzamide] belongs not above 126 nM. `COc1ccc(F)c2c1c(NS(=O)(=O)c1ccc(Cl)s1)nn2Cc1cccc(C(N)=O)c1` [Example 68, 3-{[3-{[(5-Chloro-2-thienyl)sulfonyl]amino}-7-fluoro-4-(methyloxy)-1H-indazol-1-yl]methyl}benzamide]: the Kb is not above 126 nM.

Turning to `NC(=O)c1cccc(Cn2nc(NS(=O)(=O)c3ccc(Cl)s3)c3c(O)ccc(F)c32)c1` [Example 69, 3-[(3-{[(5-Chloro-2-thienyl)sulfonyl]amino}-7-fluoro-4-hydroxy-1H-indazol-1-yl)methyl]benzamide], the Kb is not above 126 nM. With `COc1cccc2c1c(NS(=O)(=O)c1ccc(Cl)s1)nn2Cc1cccc(OCCN(C)C)c1` [Example 74, 5-Chloro-N-[1-[(3-{[2-(dimethylamino)ethyl]oxy}phenyl)methyl]-4-(methyloxy)-1H-indazol-3-yl]-2-thiophenesulfonamide] the figure was not above 126 nM; with `COc1cccc2c1c(NS(=O)(=O)c1ccc(Cl)s1)nn2Cc1ccc(OCCN(C)C)cc1` [Example 75, 5-Chloro-N-[1-[(4-{[2-(dimethylamino)ethyl]oxy}phenyl)methyl]-4-(methyloxy)-1H-indazol-3-yl]-2-thiophenesulfonamide], not above 126 nM. Consider `COc1cc(Cn2nc(NS(=O)(=O)c3ccc(Cl)s3)c3c(OC)cccc32)ccc1OCCN(C)C` [Example 76, 5-Chloro-N-[1-{[4-{[2-(dimethylamino)ethyl]oxy}-3-(methyloxy)phenyl]methyl}-4-(methyloxy)-1H-indazol-3-yl]-2-thiophenesulfonamide], for which the Kb was not above 126 nM. As for `COc1cccc2c1c(NS(=O)(=O)c1ccc(Cl)s1)nn2Cc1cccc(S(N)(=O)=O)c1` [Example 77, N-[1-{[3-(aminosulfonyl)phenyl]methyl}-4-(methyloxy)-1H-indazol-3-yl]-5-chloro-2-thiophenesulfonamide], the Kb is not above 126 nM.

As for `COc1cccc2c1c(NS(=O)(=O)c1ccc(Cl)s1)nn2Cc1cccc(CNC(=O)CCN)c1` [Example 78, N^1-[(3-{[3-{[(5-Chloro-2-thienyl)sulfonyl]amino}-4-(methyloxy)-1H-indazol-1-yl]methyl}phenyl)methyl]-β-alaninamide trifluoroacetate], the Kb was not above 126 nM.

With `COc1cccc2c1c(NS(=O)(=O)c1ccc(Cl)s1)nn2Cc1cccc(CNC(=O)[C@@H](N)CCC(N)=O)c1` [Example 79, N^1-[(3-{[3-{[(5-Chloro-2-thienyl)sulfonyl]amino}-4-(methyloxy)-1H-indazol-1-yl]methyl}phenyl)methyl]-L-glutamamide formate salt], the Kb is not above 126 nM. On to `COc1cccc2c1c(NS(=O)(=O)c1ccc(Cl)s1)nn2Cc1cccc(CNC(=O)C2(N)CCC2)c1` [Example 83, 1-Amino-N-[(3-{[3-{[(5-chloro-2-thienyl)sulfonyl]amino}-4-(methyloxy)-1H-indazol-1-yl]methyl}phenyl)methyl]cyclobutanecarboxamide trifluoroacetate], for which the Kb is not above 126 nM.

The values are drawn from US8304446B2, “Compounds” (Glaxo Group Limited, priority 2009, dated 2012).
